From US6046171A, “6,11-bridged erythromycin derivatives” (priority 1998, dated 2000)
In brackets after ≈: the same amount, converted by molar mass.

Legend:
Format in all cases: cell-based
[1] = system: Staphylococcus aureus ATCC 6538P; assay: in vitro antibacterial MIC, agar dilution (BHI agar, Steers replicator); details: organism code AA; 35-37° C., 20 to 24 hours; unit assumed
Experimental: (§1) Representative compounds of the present invention were assayed in vitro for antibacterial activity as follows: Twelve petri dishes containing successive aqueous dilutions of the test compound mixed with 10 mL of sterilized Brain Heart Infusion (BHI) agar (Difco 0418-01-5) were prepared. Each plate was inoculated with 1:100 (or 1:10 for slow-growing strains, such as Micrococcus and Streptococcus) dilutions of up to 32 different microorganisms, using a Steers replicator block. […] In addition, a control plate, using BHI agar containing no test compound, was prepared and incubated at the beginning and end of each test.
(§2) An additional plate containing a compound having known susceptibility patterns for the organisms being tested and belonging to the same antibiotic class as the test compound was also prepared and incubated as a further control, as well as to provide test-to-test comparability.
(§3) After incubation, each plate was visually inspected. The minimum inhibitory concentration (MIC) was defined as the lowest concentration of drug yielding no growth, a slight haze, or sparsely isolated colonies on the inoculum spot as compared to the growth control.

[2] = system: Enterococcus faecium ATCC 8Q43; assay: in vitro antibacterial MIC, agar dilution; details: organism code II; 35-37° C., 20 to 24 hours; unit assumed
Experimental: as §1, §2, §3

[3] = system: Escherichia coli SS; assay: in vitro antibacterial MIC, agar dilution; details: organism code RR; 35-37° C., 20 to 24 hours; unit assumed
Experimental: as §1, §2, §3

[4] = system: Haemophilis Influenzae DILL AMP R; assay: in vitro antibacterial MIC, agar dilution; details: organism code WW; 35-37° C., 20 to 24 hours; unit assumed
Experimental: as §1, §2, §3

[5] = system: Micrococcus luteus ATCC 4698; assay: in vitro antibacterial MIC, agar dilution; details: organism code PP; 35-37° C., 20 to 24 hours; unit assumed
Experimental: as §1, §2, §3

[6] = system: Nocardia Asteroides ATCC9970; assay: in vitro antibacterial MIC, agar dilution; details: organism code VV; 35-37° C., 20 to 24 hours; unit assumed
Experimental: as §1, §2, §3

[7] = system: Staphylococcus aureus CMX 553; assay: in vitro antibacterial MIC, agar dilution; details: organism code FF; 35-37° C., 20 to 24 hours; unit assumed
Experimental: as §1, §2, §3

[8] = system: Staphylococcus aureus CMX 642A; assay: in vitro antibacterial MIC, agar dilution; details: organism code DD; 35-37° C., 20 to 24 hours; unit assumed
Experimental: as §1, §2, §3

[9] = system: Staphylococcus epidermidis 3519; assay: in vitro antibacterial MIC, agar dilution; details: organism code HH; 35-37° C., 20 to 24 hours; unit assumed
Experimental: as §1, §2, §3

[10] = system: Streptococcus Pheumoniae 5649; assay: in vitro antibacterial MIC, agar dilution; details: organism code ZZA; 35-37° C., 20 to 24 hours; unit assumed
Experimental: as §1, §2, §3

[11] = system: Streptococcus Pheumoniae 5979; assay: in vitro antibacterial MIC, agar dilution; details: organism code ZZ; 35-37° C., 20 to 24 hours; unit assumed
Experimental: as §1, §2, §3

[12] = system: Streptococcus pyogenes EES61; assay: in vitro antibacterial MIC, agar dilution; details: organism code LL; 35-37° C., 20 to 24 hours; unit assumed
Experimental: as §1, §2, §3

[13] = system: Streptococcus pyogenes PIU 2548; assay: in vitro antibacterial MIC, agar dilution; details: organism code NN; 35-37° C., 20 to 24 hours; unit assumed
Experimental: as §1, §2, §3

[14] = system: Micrococcus luteus ATCC 9341; assay: in vitro antibacterial MIC, agar dilution; details: organism code OO; 35-37° C., 20 to 24 hours; unit assumed
Experimental: as §1, §2, §3

[15] = system: Mycobacterium smegmatis ATCC 114; assay: in vitro antibacterial MIC, agar dilution; details: organism code UU; 35-37° C., 20 to 24 hours; unit assumed
Experimental: as §1, §2, §3

[16] = system: Staphylococcus aureus A5177; assay: in vitro antibacterial MIC, agar dilution; details: organism code BB; 35-37° C., 20 to 24 hours; unit assumed
Experimental: as §1, §2, §3

[17] = system: Staphylococcus aureus NCTC10649M; assay: in vitro antibacterial MIC, agar dilution; details: organism code EE; 35-37° C., 20 to 24 hours; unit assumed
Experimental: as §1, §2, §3

[18] = system: Streptococcus agalactiae CMX 508; assay: in vitro antibacterial MIC, agar dilution; details: organism code KK; 35-37° C., 20 to 24 hours; unit assumed
Experimental: as §1, §2, §3

[19] = system: Streptococcus bovis A-5169; assay: in vitro antibacterial MIC, agar dilution; details: organism code JJ; 35-37° C., 20 to 24 hours; unit assumed
Experimental: as §1, §2, §3

[20] = system: Streptococcus pyogenes 930; assay: in vitro antibacterial MIC, agar dilution; details: organism code MM; 35-37° C., 20 to 24 hours; unit assumed
Experimental: as §1, §2, §3

Structure (SMILES) | MIC [1] [µg/mL] | MIC [2] [µg/mL] | MIC [3] [µg/mL] | MIC [4] [µg/mL] | MIC [5] [µg/mL] | MIC [6] [µg/mL] | MIC [7] [µg/mL] | MIC [8] [µg/mL] | MIC [9] [µg/mL] | MIC [10] [µg/mL] | MIC [11] [µg/mL] | MIC [12] [µg/mL] | MIC [13] [µg/mL] | MIC [14] [µg/mL] | MIC [15] [µg/mL] | MIC [16] [µg/mL] | MIC [17] [µg/mL] | MIC [18] [µg/mL] | MIC [19] [µg/mL] | MIC [20] [µg/mL]
CC[C@H]1OC(=O)[C@H](C)[C@@H](O[C@H]2C[C@@](C)(OC)[C@@H](O)[C@H](C)O2)[C@H](C)[C@@H](O[C@@H]2O[C@H](C)C[C@H](N(C)C)[C@H]2O)[C@@]2(C)C[C@@H](C)C(=O)[C@H](C)[C@H]3N(CCNC(=O)c4ccccc4C=CCO2)C(=O)O[C@]13C [Example 4] | 1.56 (≈ 1.65 µM) | 0.39 (≈ 0.413 µM) | 6.2 (≈ 6.57 µM) | 16 (≈ 16.9 µM) | 1.56 (≈ 1.65 µM) | 0.2 (≈ 0.212 µM) | 1.56 (≈ 1.65 µM) | 1.56 (≈ 1.65 µM) | 1.56 (≈ 1.65 µM) | 16 (≈ 16.9 µM) | > 128 | 0.39 (≈ 0.413 µM) | 12.5 (≈ 13.2 µM) |  |  |  |  |  |  | 
CC[C@H]1OC(=O)[C@H](C)[C@@H](O[C@H]2C[C@@](C)(OC)[C@@H](O)[C@H](C)O2)[C@H](C)[C@@H](O[C@@H]2O[C@H](C)C[C@H](N(C)C)[C@H]2O)[C@@]2(C)C[C@@H](C)C(=O)[C@H](C)[C@H]3N(CCNC(=O)Cc4ccccc4C=CCO2)C(=O)O[C@]13C [Example 6] | 0.78 (≈ 0.814 µM) | 0.39 (≈ 0.407 µM) | 3.1 (≈ 3.24 µM) | 8 (≈ 8.35 µM) | 0.78 (≈ 0.814 µM) | 0.39 (≈ 0.407 µM) | 0.78 (≈ 0.814 µM) | 1.56 (≈ 1.63 µM) | 0.78 (≈ 0.814 µM) | 16 (≈ 16.7 µM) | > 128 | 0.2 (≈ 0.209 µM) | 12.5 (≈ 13 µM) | 0.1 (≈ 0.104 µM) | 0.39 (≈ 0.407 µM) | 12.5 (≈ 13 µM) | 1.56 (≈ 1.63 µM) | 0.1 (≈ 0.104 µM) | 0.1 (≈ 0.104 µM) | 
CC[C@H]1OC(=O)[C@H](C)[C@@H](O[C@H]2C[C@@](C)(OC)[C@@H](OC(C)=O)[C@H](C)O2)[C@H](C)[C@@H](O[C@@H]2O[C@H](C)C[C@H](N(C)C)[C@H]2O)[C@@]2(C)C[C@@H](C)C(=O)[C@H](C)[C@H]3N(CCNCc4cccc(c4)C=CCO2)C(=O)O[C@]13C [Example 10] | 6.2 (≈ 6.38 µM) | 0.78 (≈ 0.802 µM) | 6.2 (≈ 6.38 µM) |  | 1.56 (≈ 1.6 µM) | 1.56 (≈ 1.6 µM) | 6.2 (≈ 6.38 µM) | 6.2 (≈ 6.38 µM) | 6.2 (≈ 6.38 µM) | 8 (≈ 8.23 µM) |  | 0.78 (≈ 0.802 µM) | 6.2 (≈ 6.38 µM) | 0.39 (≈ 0.401 µM) | 0.39 (≈ 0.401 µM) | 25 (≈ 25.7 µM) | 6.2 (≈ 6.38 µM) | 0.39 (≈ 0.401 µM) | 0.39 (≈ 0.401 µM) | 25 (≈ 25.7 µM)
CC[C@H]1OC(=O)[C@H](C)[C@@H](O[C@H]2C[C@@](C)(OC)[C@@H](O)[C@H](C)O2)[C@H](C)[C@@H](O[C@@H]2O[C@H](C)C[C@H](N(C)C)[C@H]2O)[C@@]2(C)C[C@@H](C)C(=O)[C@H](C)[C@H]3N(CCNCc4cccc(c4)C=CCO2)C(=O)O[C@]13C [Example 11] |  | 0.2 (≈ 0.215 µM) | 6.2 (≈ 6.67 µM) | 32 (≈ 34.4 µM) |  |  |  |  |  | 32 (≈ 34.4 µM) | > 128 |  |  |  |  |  |  |  |  | 
CC[C@H]1OC(=O)[C@H](C)C(=O)[C@H](C)[C@@H](O[C@@H]2O[C@H](C)C[C@H](N(C)C)[C@H]2O)[C@@]2(C)C[C@@H](C)C(=O)[C@H](C)[C@H]3N(CCOCc4ccccc4C=CCO2)C(=O)O[C@]13C [Example 12] | 0.78 (≈ 1.01 µM) | 0.1 (≈ 0.13 µM) | 1.56 (≈ 2.02 µM) | 16 (≈ 20.8 µM) |  | 0.78 (≈ 1.01 µM) | 0.78 (≈ 1.01 µM) | 0.78 (≈ 1.01 µM) | 0.78 (≈ 1.01 µM) | 1 (≈ 1.3 µM) | 128 (≈ 166 µM) |  |  |  | 0.78 (≈ 1.01 µM) | 0.78 (≈ 1.01 µM) | 0.78 (≈ 1.01 µM) |  |  | 50 (≈ 64.9 µM)
CC[C@H]1OC(=O)[C@H](C)[C@@H](O[C@H]2C[C@@](C)(OC)[C@@H](O)[C@H](C)O2)[C@H](C)[C@@H](O[C@@H]2O[C@H](C)C[C@H](N(C)C)[C@H]2O)[C@@]2(C)C[C@@H](C)C(=O)[C@H](C)[C@H]3N(CCCCO2)C(=O)O[C@]13C [Example 15] |  | 0.1 (≈ 0.123 µM) |  | 32 (≈ 39.4 µM) |  |  |  |  |  | 16 (≈ 19.7 µM) | > 128 |  |  |  |  |  |  |  | 0.05 (≈ 0.0615 µM) | 
CC[C@H]1OC(=O)[C@H](C)C(=O)[C@H](C)[C@@H](O[C@@H]2O[C@H](C)C[C@H](N(C)C)[C@H]2O)[C@@]2(C)C[C@@H](C)C(=O)[C@H](C)[C@H]3N(CC=CCO2)C(=O)O[C@]13C [Example 16] | 0.39 (≈ 0.599 µM) | 0.2 (≈ 0.307 µM) | 0.78 (≈ 1.2 µM) | 32 (≈ 49.2 µM) | 0.39 (≈ 0.599 µM) | 0.39 (≈ 0.599 µM) | 0.39 (≈ 0.599 µM) | 0.39 (≈ 0.599 µM) | 0.39 (≈ 0.599 µM) |  | > 128 | 0.2 (≈ 0.307 µM) | 0.39 (≈ 0.599 µM) | 0.2 (≈ 0.307 µM) | 6.2 (≈ 9.53 µM) | 0.39 (≈ 0.599 µM) | 0.39 (≈ 0.599 µM) | 0.2 (≈ 0.307 µM) | 0.2 (≈ 0.307 µM) | 
CC[C@H]1OC(=O)[C@H](C)[C@@H](O[C@H]2C[C@@](C)(OC)[C@@H](O)[C@H](C)O2)[C@H](C)[C@@H](O[C@@H]2O[C@H](C)C[C@H](N(C)C)[C@H]2O)[C@@]2(C)C[C@@H](C)C(=O)[C@H](C)[C@H]3N(CCC=CCO2)C(=O)O[C@]13C [Example 17] | 0.1 (≈ 0.121 µM) | 0.05 (≈ 0.0606 µM) |  | 8 (≈ 9.7 µM) | 0.1 (≈ 0.121 µM) | 0.02 (≈ 0.0242 µM) | 0.1 (≈ 0.121 µM) | 0.2 (≈ 0.242 µM) | 0.2 (≈ 0.242 µM) | 8 (≈ 9.7 µM) | > 128 | 0.02 (≈ 0.0242 µM) |  | 0.02 (≈ 0.0242 µM) | 0.2 (≈ 0.242 µM) |  | 0.2 (≈ 0.242 µM) |  |  | 
CC[C@H]1OC(=O)[C@H](C)[C@@H](O[C@H]2C[C@@](C)(OC)[C@@H](O)[C@H](C)O2)[C@H](C)[C@@H](O[C@@H]2O[C@H](C)C[C@H](N(C)C)[C@H]2O)[C@@]2(C)C[C@@H](C)C(=O)[C@H](C)[C@H]3N(CC(O)CC=CCO2)C(=O)O[C@]13C (some centres unmarked) [Example 19] |  | 0.1 (≈ 0.117 µM) |  | 8 (≈ 9.36 µM) |  | 0.05 (≈ 0.0585 µM) |  |  |  | 16 (≈ 18.7 µM) | > 128 | 0.05 (≈ 0.0585 µM) | 12.5 (≈ 14.6 µM) | 0.05 (≈ 0.0585 µM) |  |  |  | 0.05 (≈ 0.0585 µM) | 0.02 (≈ 0.0234 µM) | 
